One test deals with T1, PfCCT(581–775) (Plasmodium falciparum, UniProt P49587, DEL194-211).
T1 construct: The PfCCT(581–775) construct was obtained using previously described PfCCT(528–795); 6xHis (TEV-cleavable) (N, cleaved yes); made in house; host or cells: E. coli BL21 (DE3)
Nature of the test: Continuous coupled colorimetric enzyme activity assay (PPase/PNP/MESG). Type of test: biochemical. To be noted: CTP varied 100 μM–2 mM, ChoP fixed 5 mM. As to the method: (§1) Enzyme activity measurements were performed as described previously, using a continuous coupled colorimetric assay with pyrophosphatase (PPase), purine nucleoside phosphorylase (PNP) auxiliary enzymes and the auxiliary substrate 7-methyl-6-thioguanosine (MESG)[16],[30],[39]. For CTP substrate titrations, CTP concentration was varied between 100 μM and 2 mM while ChoP concentration was kept constant at 5 mM. For ChoP titrations, ChoP concentration was varied between 0.5 mM and 20 mM while CTP concentration was kept constant at 1 mM. Initial velocities were calculated from the first 10% of the progress curves using phosphate calibration as reference. Due to the low activity of PfCCT(581–775) and PfCCT(528–795) T761A, T762A variants, the enzyme was used at 10 μM concentration and the slope of the absorbance change was determined after monitoring the reaction for 20 minutes. For measurements with PfCCT(528–795) K663A the following reagent concentrations were used in the enzyme assay: [PPase] = 0.17 U·ml^−1, [PNP] = 1.25 U·ml^−1, [MESG] = 0.1 mM, [Mg^2+] = 5 mM and [PfCCT(528–795) K663A] = 10 μM, to yield adequate signal-to-noise ratio (S/N > 10). Three independent experiments were performed for CTP and ChoP kinetic titrations of PfCCT(528–795) K663A. Global fit of CTP and ChoP kinetic titrations for each enzyme variant was performed in Origin 8.6 using Michaelis–Menten equation, to yield a single kcat parameter.

For test [1], the target named is PfCCT(528–795) Y626F/Q636A (Plasmodium falciparum, UniProt Q8IEE9, DEL720-737/Q636A/Y626F). Described as above. It is filed as biochemical. To be noted: CTP varied 100 μM–2 mM, ChoP fixed 5 mM; read-out: KM,CTP. As to the method:
as §1

A further test deals with T2, PfCCT(528–795) (Plasmodium falciparum, UniProt P49587, DEL194-211).
T2 construct: previously described PfCCT(528–795) lacking the lysine-rich Plasmodium specific loop (720–737); His-tag; made in house
Details: method as in Nagy et al.[16]. To be noted: ref Nagy et al.[16]; read-out: KM,CTP; cited from earlier work.

For a further test, the target named is PfCCT(528–795) K663A (Plasmodium falciparum, UniProt Q8IEE9, DEL720-737/K663A). As to the kind of experiment: Continuous coupled colorimetric enzyme activity assay (PPase/PNP/MESG). To be noted: refers to a phosphohydrolase activity; ChoP fixed 5 mM; read-out: KM,CTP. It is filed as biochemical. From the text:
The presence of Cho in the active site at least partially stabilizes the K663 side chain, while ChoP or CDPCho accommodation renders this residue fully visualized. The K663 terminal amino moiety points towards the phosphate group of ChoP or both phosphate moieties of CDPCho, in somewhat different conformations (Fig. 3e and Supplementary Fig. S3). These structural insights showing variable detection and interactions of K663 prompted us to an in-depth definition of its role throughout the course of the catalytic mechanism. We interrogated the functionality of this residue by site directed mutagenesis followed by biochemical analysis. […] The enzymatic activity was monitored by a coupled pyrophosphatase (PPase) assay and consisted of two consecutive steps: the cleavage of the byproduct pyrophosphate into two phosphates and the addition of phosphates to a nucleotide derivative, resulting a chromophore substance. […] The accumulation of free phosphate in the absence of the substrate, ChoP, argued for a CTP phosphohydrolase (CTP → CDP + Pi) activity of the K663A mutant (Supplementary Fig. S4). […] For reliable characterization of ligand interactions of this lysine, we measured the equilibrium ligand binding of CDPCho and CTP to PfCCT(528–795) K663A (Table 2 and Supplementary Fig. S4). […]

Another test concerns PfCCT(528–795) T762A. Described as above. It is filed as biochemical, Plasmodium falciparum. To be noted: CTP varied 100 μM–2 mM, ChoP fixed 5 mM; read-out: KM,CTP. The method, then:
as §1

The subject of another test is PfCCT(528–795) T761A. Described as above. It is filed as biochemical, Plasmodium falciparum. To be noted: CTP varied 100 μM–2 mM, ChoP fixed 5 mM; read-out: KM,CTP. As to the method:
as §1

Sequence of PfCCT(528–795) Y626F/Q636A (Q8IEE9 528-795, stated change not applied): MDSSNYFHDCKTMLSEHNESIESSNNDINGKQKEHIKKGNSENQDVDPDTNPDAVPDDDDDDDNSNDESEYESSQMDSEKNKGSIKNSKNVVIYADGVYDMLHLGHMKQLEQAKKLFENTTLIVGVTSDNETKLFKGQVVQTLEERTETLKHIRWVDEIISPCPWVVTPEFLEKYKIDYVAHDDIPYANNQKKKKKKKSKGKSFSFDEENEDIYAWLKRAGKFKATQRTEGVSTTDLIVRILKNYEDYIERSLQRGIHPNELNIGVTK
Sequence of PfCCT(528–795) K663A (Q8IEE9 528-795, stated change not applied): as above

By Km is commonly meant the substrate concentration at which the rate is half of its maximum. As to `Nc1ccn([C@@H]2O[C@H](COP(=O)(O)OP(=O)(O)OP(=O)(O)O)[C@@H](O)[C@H]2O)c(=O)n1` [CTP], the Km is 1100 µM at PfCCT(581–775); 170 ± 10 µM in test [1]; 170 ± 20 µM at PfCCT(528–795); 70 ± 20 µM at PfCCT(528–795) K663A; 610 ± 70 µM in the test on PfCCT(528–795) T762A; 1270 µM in the test on PfCCT(528–795) T761A.
